{
  "source": "PubChem BioAssay AID1259407",
  "about": "(Chemical Carcinogenesis Research Information System (CCRIS), 2018)",
  "tested_on": "CCRIS mutagenicity, Ames/micronucleus/aberration tests",
  "assay": "CCRIS mutagenicity studies",
  "key": {"[1]": {"settings": "Test System: AMES SALMONELLA TYPHIMURIUM, Strain/Indicator: TA100, Metabolic Activation: NONE, Method: STANDARD PLATE"}, "[2]": {"settings": "Test System: AMES SALMONELLA TYPHIMURIUM, Strain/Indicator: TA98, Metabolic Activation: NONE, Method: STANDARD PLATE"}, "[3]": {"settings": "Test System: AMES SALMONELLA TYPHIMURIUM, Strain/Indicator: TA98, Metabolic Activation: RAT, LIVER, S-9, AROCLOR 1254, Method: STANDARD PLATE"}},
  "note": "Activity calls are given as the source filed them. How the calls were made is not given here.",
  "data": [
    {"smiles": "[N-]=[N+]=CC(=O)OC[C@H](N)C(=O)O", "values": [
      {"measurement": "mutagenic call", "setting": "[1]", "result": "active; positive"},
      {"measurement": "mutagenic call", "setting": "Test System: E. COLI WP2, Strain/Indicator: WP2, Metabolic Activation: NONE, Method: STANDARD PLATE", "result": "active; positive"},
      {"measurement": "mutagenic call", "setting": "Test System: UDS RAT HEPATOCYTES, Strain/Indicator: BROMODEOXYURIDINE INCORP, Metabolic Activation: NONE, Method: FLOW CYTOMETRIC ANALYSIS", "result": "active; positive"},
      {"measurement": "mutagenic call", "setting": "Test System: UDS RAT HEPATOCYTES, Strain/Indicator: THY INCORP, Metabolic Activation: NONE, Method: AUTORADIOGRAPHY", "result": "active; positive"}
    ]},
    {"smiles": "O=[As](O)(O)O", "values": [
      {"measurement": "mutagenic call", "setting": "End Point: IN VITRO CHROMOSOMAL ABERRATIONS, Test System: CHINESE HAMSTER OVARY (CHO), Metabolic Activation: NONE", "result": "active; positive (structural changes: gaps, breaks)"},
      {"measurement": "mutagenic call", "setting": "End Point: IN VITRO MICRONUCLEUS, Test System: CHINESE HAMSTER V-79, Metabolic Activation: NONE", "result": "active; positive"},
      {"measurement": "mutagenic call", "setting": "End Point: In vitro chromosomal aberrations, Test System: Human peripheral lymphocytes, Metabolic Activation: None", "result": "active; positive"},
      {"measurement": "mutagenic call", "setting": "End Point: In vitro micronucleus, Test System: Human peripheral lymphocytes, Metabolic Activation: None", "result": "active; positive"},
      {"measurement": "mutagenic call", "setting": "End Point: In vivo micronucleus, Test System: Bone marrow polychromatic erythrocytes, Species: Mouse, Strain/Sex: C57BI/6J/Female, Route: Oral", "result": "inactive; negative"},
      {"measurement": "mutagenic call", "setting": "Test System: AMES SALMONELLA TYPHIMURIUM, Strain/Indicator: TA102, Metabolic Activation: NONE, Method: STANDARD PLATE", "result": "inactive; negative"},
      {"measurement": "mutagenic call", "setting": "Test System: CHINESE HAMSTER V-79, Strain/Indicator: SP5 V-79 (HPRT)/6-THIOGUANINE, Metabolic Activation: NONE, Method: STANDARD PLATE", "result": "inactive; negative"},
      {"measurement": "mutagenic call", "setting": "Test System: CHINESE HAMSTER V-79, Strain/Indicator: SPD8 V-79 (HPRT)/6-THIOGUANINE, Metabolic Activation: NONE, Method: STANDARD PLATE", "result": "active; positive"},
      {"measurement": "mutagenic call", "setting": "Test System: E. COLI, Strain/Indicator: WP2 UVRA, Metabolic Activation: NONE, Method: SPOT TEST", "result": "inactive; negative"},
      {"measurement": "mutagenic call", "setting": "Test System: MOUSE LYMPHOMA, Strain/Indicator: L5178Y (TK+/TK-), Metabolic Activation: NONE, Method: SUSPENSION/PLATE", "result": "active; positive"}
    ]},
    {"smiles": "C[n+]1ccc(-c2ccccc2)cc1", "values": [
      {"measurement": "mutagenic call", "setting": "Test System: AMES SALMONELLA TYPHIMURIUM, Strain/Indicator: TA100, Metabolic Activation: NONE, Method: PREINCUBATION", "result": "inactive; negative"},
      {"measurement": "mutagenic call", "setting": "Test System: AMES SALMONELLA TYPHIMURIUM, Strain/Indicator: TA102, Metabolic Activation: NONE, Method: PREINCUBATION", "result": "inactive; negative"}
    ]},
    {"smiles": "OCc1c2ccccc2cc2c1ccc1ccccc12", "values": [
      {"measurement": "mutagenic call", "setting": "[2]", "result": "active; positive"},
      {"measurement": "mutagenic call", "setting": "Test System: AMES SALMONELLA TYPHIMURIUM, Strain/Indicator: TA98, Metabolic Activation: RAT, LIVER, S-9, 3'-PHOSPHOADENOSINE 5'-PHOSPHOSULFATE GENERATING SYSTEM, Method: PREINCUBATION", "result": "active; positive"},
      {"measurement": "mutagenic call", "setting": "Test System: AMES SALMONELLA TYPHIMURIUM, Strain/Indicator: TA98, Metabolic Activation: RAT, LIVER, S-9, NADPH GENERATING SYSTEM, Method: PREINCUBATION", "result": "active; positive"},
      {"measurement": "mutagenic call", "setting": "Test System: AMES SALMONELLA TYPHIMURIUM, Strain/Indicator: TA98, Metabolic Activation: RAT, LIVER, S-105, 3'-PHOSPHOADENOSINE 5'-PHOSPHOSULFATE GENERATING SYSTEM, Method: PREINCUBATION", "result": "active; positive"}
    ]},
    {"smiles": "CN(CCC#N)c1ccc(N=Nc2ccccc2)cc1", "values": [
      {"measurement": "mutagenic call", "setting": "Test System: AMES SALMONELLA TYPHIMURIUM, Strain/Indicator: TA98, Metabolic Activation: RAT, LIVER, S-9, AROCLOR, Method: PREINCUBATION", "result": "active; positive"}
    ]},
    {"smiles": "O=[N+]([O-])c1cccc2c1[nH]c1ccccc12", "values": [
      {"measurement": "mutagenic call", "setting": "[2]", "result": "active; positive"},
      {"measurement": "mutagenic call", "setting": "[3]", "result": "active; positive"},
      {"measurement": "mutagenic call", "setting": "Test System: AMES SALMONELLA TYPHIMURIUM, Strain/Indicator: TA98, Metabolic Activation: RAT, LIVER, S-9, PHENOBARBITAL, Method: STANDARD PLATE", "result": "active; positive"},
      {"measurement": "mutagenic call", "setting": "[1]", "result": "inactive; negative"},
      {"measurement": "mutagenic call", "setting": "Test System: AMES SALMONELLA TYPHIMURIUM, Strain/Indicator: TA100, Metabolic Activation: RAT, LIVER, S-9, PHENOBARBITAL, Method: STANDARD PLATE", "result": "inactive; negative"},
      {"measurement": "mutagenic call", "setting": "Test System: AMES SALMONELLA TYPHIMURIUM, Strain/Indicator: TA1538, Metabolic Activation: NONE, Method: STANDARD PLATE", "result": "active; positive"},
      {"measurement": "mutagenic call", "setting": "Test System: AMES SALMONELLA TYPHIMURIUM, Strain/Indicator: TA1538, Metabolic Activation: RAT, LIVER, S-9, PHENOBARBITAL, Method: STANDARD PLATE", "result": "active; positive"},
      {"measurement": "mutagenic call", "setting": "Test System: AMES SALMONELLA TYPHIMURIUM, Strain/Indicator: TA1977, Metabolic Activation: NONE, Method: STANDARD PLATE", "result": "inactive; negative"},
      {"measurement": "mutagenic call", "setting": "Test System: AMES SALMONELLA TYPHIMURIUM, Strain/Indicator: TA1977, Metabolic Activation: RAT, LIVER, S-9, PHENOBARBITAL, Method: STANDARD PLATE", "result": "inactive; negative"}
    ]},
    {"smiles": "CN(C)CCNC(=O)c1cccc2cc3ccccc3nc12", "values": [
      {"measurement": "mutagenic call", "setting": "Test System: AMES SALMONELLA TYPHIMURIUM, Strain/Indicator: TA1537, Metabolic Activation: NONE, Method: STANDARD PLATE", "result": "active; positive"}
    ]},
    {"smiles": "Cc1ccc2c(c1)-c1ccccc1C2C", "note": "(stereo not drawn)", "values": [
      {"measurement": "mutagenic call", "setting": "[3]", "result": "active; positive"},
      {"measurement": "mutagenic call", "setting": "Test System: AMES SALMONELLA TYPHIMURIUM, Strain/Indicator: TA100, Metabolic Activation: RAT, LIVER, S-9, AROCLOR 1254, Method: STANDARD PLATE", "result": "active; positive"}
    ]}
  ]
}
